Measured values published in patent publication US20100113776A1, “PYRAZOLE DERIVATIVE” (TAISHO PHARMACEUTICAL CO.,LTD., priority 2006, published 2010).

How the values were obtained:
[1] = target: T1, human H3 receptor (Homo sapiens, UniProt Q9Y5N1); experiment: H3 receptor binding test; settings: membrane preparation of human H3 receptor-expressing CHO-K1 cells; 2 nM R(−)-α-methyl[3H]histamine; room temperature, 1 hour
T1 construct: purchased Euroscreen ES-392-M; host or cells: CHO-K1 cells (recombinant expression)
Experimental: A membrane preparation of human H3 receptor-expressing CHO—K1 cells (Euroscreen, ES-392-M, 15 μg protein/200 μl), R(−)-α-methyl[^3H]histamine (Amersham, TRK-1017, specific activity: 1.74 TBq/mmol, 2 nM) and a test drug were reacted at room temperature for 1 hour. After completion of the reaction, the reaction mixture was subjected to suction filtration through a 0.3% polyethyleneimine-treated glass filter (GF/C). The glass filter was washed five times with 50 mM Tris-HCl washing solution (pH 7.4) containing 0.1% BSA and 5 mM magnesium chloride. After washing, the glass filter was dried and a scintillator was added thereto, followed by measurement of radioactivity on the filter using a liquid scintillation counter.
Binding of R(−)-α-methyl[^3H]histamine in the presence of 10 μM R(−)-α-methylhistamine was defined as non-specific binding, and the difference between total binding and non-specific binding of R(−)-α-methyl[^3H]histamine was defined as specific binding of R(−)-α-methyl[^3H]histamine. A fixed concentration (2 nM) of R(−)-α-methyl[^3H]histamine was reacted under the above conditions with each test drug at various concentrations to obtain an inhibition curve. The inhibition curve was used to determine the concentration (IC50) of each test drug required for 50% inhibition of R(−)-α-methyl[^3H]histamine binding.

[2] = target: T1, human H3 receptor; experiment: [35S]GTP-γ-S binding test; format: biochemical; settings: human H3 receptor membrane preparation; 100 μM R(−)-α-methylhistamine; 0.2 nM [35S]GTP-γ-S; 30 μM GDP
Experimental: A human H3 receptor membrane preparation (7.5 μg protein/100 μl), 30 μM GDP, 100 μM R(−)-α-methylhistamine and a test compound were reacted at room temperature for 30 minutes. After completion of the reaction, [^35S]GTP-γ-S (0.2 nM) was added and reacted for an additional 30 minutes. After completion of the reaction, the reaction mixture was subjected to suction filtration through a glass filter (GF/C). The glass filter was washed three times with 20 mM HEPES washing solution (pH 7.4) containing 100 mM sodium chloride and 1 mM magnesium chloride. After washing, the glass filter was dried and a scintillator was added thereto, followed by measurement of radioactivity on the filter using a liquid scintillation counter.
Binding of [^35S]GTP-γ-S in the absence of R(−)-α-methylhistamine was defined as non-specific binding, and the difference between total binding in the presence of R(−)-α-methylhistamine and non-specific binding was defined as specific binding of [^35S]GTP-γ-S. Fixed concentrations of [^35S]GTP-γ-S (0.2 nM) and R(−)-α-methylhistamine (100 μM) were reacted under the above conditions with each test drug at various concentrations to obtain an inhibition curve. The inhibition curve was used to determine the concentration (IC50) of each test drug required for 50% inhibition of [^35S]GTP-γ-S binding.

[3] = system: male SD rats; experiment: Social recognition test; format: in vivo, rat; settings: compared to the vehicle group
Experimental: In this test, male SD rats were used. Adult rats were placed in a Perspex test box and acclimated for 30 minutes. Then, young rats were placed in the same test box, and the time taken for the adult rats to show exploratory behavior to the young rats during 5 minutes was measured (first exploratory behavior time). The exploratory behavior measured included sniffing, grooming, and closely following. After a 5 minute exploration, the adult and young rats were removed from the test box and returned to their respective home cages. After 90 minutes, the adult rats were placed again in the same test box as used in the first exploratory behavior test and acclimated for 30 minutes. Then, the same young rats as used in the first test were placed in the test box, and the time taken for the adult rats to show exploratory behavior to the young rats during 5 minutes was measured (second exploratory behavior time). The ratio of the second exploratory behavior time to the first exploratory behavior time (second/first exploratory behavior time ratio) was taken as an indicator of social recognition. The compound of the present invention was orally administered to the adult rats immediately after their first exploratory behavior. The compound of the present invention was dissolved in 0.03 N hydrochloric acid and tested at 0.1, 0.3 and 1 mg/kg.

T1 sequence (Q9Y5N1 whole entry): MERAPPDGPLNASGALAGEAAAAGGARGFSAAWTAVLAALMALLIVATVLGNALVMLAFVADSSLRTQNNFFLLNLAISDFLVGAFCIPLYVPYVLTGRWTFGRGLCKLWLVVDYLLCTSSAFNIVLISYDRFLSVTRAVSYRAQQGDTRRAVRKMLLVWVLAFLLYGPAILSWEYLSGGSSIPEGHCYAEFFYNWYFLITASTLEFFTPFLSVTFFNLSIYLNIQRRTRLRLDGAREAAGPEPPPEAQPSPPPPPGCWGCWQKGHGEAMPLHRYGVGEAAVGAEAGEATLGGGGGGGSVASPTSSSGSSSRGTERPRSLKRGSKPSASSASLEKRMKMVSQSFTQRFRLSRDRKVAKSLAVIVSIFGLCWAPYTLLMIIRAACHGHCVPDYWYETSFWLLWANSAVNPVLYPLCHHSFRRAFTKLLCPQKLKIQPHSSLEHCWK

SMILES	IC50 [1] [nM]	IC50 [2] [nM]	second/first exploratory behavior time ratio ([3]; 0.3 mg/kg orally to adult male SD rats immediately after first exploratory behavior)	second/first exploratory behavior time ratio ([3]; 1 mg/kg orally to adult male SD rats immediately after first exploratory behavior)
O=C(NCC(F)(F)F)c1cnn(-c2ccc(OC3CCN(C4CCC4)CC3)cc2)c1 [compound 18, 1-{4-[(1-cyclobutylpiperidin-4-yl)oxy]phenyl}-N-(2,2,2-trifluoroethyl)-1H-pyrazole-4-carboxamide]	14.7			
O=C(c1cnn(-c2ccc(OC3CCN(C4CCCC4)CC3)cc2)c1)N1CCCC1 [Compound No. 1, 1-cyclopentyl-4-{4-[4-(pyrrolidin-1-ylcarbonyl)-1H-pyrazol-1-yl]phenoxy}piperidine]	10.4	2.6	significantly reduced	significantly reduced
O=C(c1cnn(-c2ccc(OC3CCN(C4CCC4)CC3)cc2)c1)N1CCCC1 [Compound No. 14, 1-cyclobutyl-4-{4-[4-(pyrrolidin-1-ylcarbonyl)-1-pyrazol-1-yl]phenoxy}piperidine]	7.1	1.6		
CC1CCCC1N1CCC(Oc2ccc(-n3cc(C(=O)N4CCCC4)cn3)cc2)CC1 (stereo not shown) [Compound No. 5, 1-(2-methylcyclopentyl)-4-{4-[4-(pyrrolidin-1-ylcarbonyl)-1H-pyrazol-1-yl]phenoxy}piperidine]	8.1			

Continued by falling IC50 [1], values first:

IC50 [1] [nM]	IC50 [2] [nM]	SMILES	second/first exploratory behavior time ratio ([3]; 0.3 mg/kg orally to adult male SD rats immediately after first exploratory behavior)	second/first exploratory behavior time ratio ([3]; 1 mg/kg orally to adult male SD rats immediately after first exploratory behavior)
7.1	1.2	O=C(c1ccn(-c2ccc(OC3CCN(C4CCC4)CC3)cc2)n1)N1CCCC1 [Compound No. 68, {1-[4-(1-cyclobutylpiperidin-4-yloxy)phenyl]-1H-pyrazol-3-yl}pyrrolidin-1-yl-methanone]		
6.2		O=C(NCC1CCCCC1)c1cnn(-c2ccc(OC3CCN(C4CCC4)CC3)cc2)c1 [compound 19, 1-{4-[(1-cyclobutylpiperidin-4-yl)oxy]phenyl}-N-(cyclohexylmethyl)-1H-pyrazole-4-carboxamide]		
5.7	1.1	O=C(NC1CCCC1)c1cnn(-c2ccc(OC3CCN(C4CCC4)CC3)cc2)c1 [compound 16, 1-{4-[(1-cyclobutylpiperidin-4-yl)oxy]phenyl}-N-cyclopentyl-1H-pyrazole-4-carboxamide]		
